Source: the OPERA property sets (Mansouri et al. 2018)

In the case of `Nc1nc2c(ncn2C2OC(CO)C(O)C2O)c(=O)[nH]1` (centres undefined), the logP is reported as -1.9.
Compound `CSc1cnc2ccccc2n1` has a logP of 2.79.
Work on `COc1ncnc2c1ncn2C1OC(CO)C(OC(=O)Cc2ccccc2)C1OC(=O)Cc1ccccc1` (centres undefined) yielded a logP of 3.48.
`CC1(C)CC(=O)CC(C)(C)N1O` gave a logP of 0.12.
`O=C(O)c1ccc(Cl)cc1Nc1ccc(Cl)cc1` showed a logP of 4.97.
`CCCCCCCCCCCCCc1ccc(O)cc1` showed a logP of 8.2.
`Clc1ccc(-c2cccc(Cl)c2)cc1` showed a logP of 5.15.
`Cc1cccc(C)c1NC(=O)CCCC(C)N` (centres undefined) showed a logP of 1.41.
Compound `COc1ccc(CCOC(=O)C(N)Cc2ccc(O)c(O)c2)cc1` (centres undefined) has a logP of 1.69.
For `O=C(O)c1ccc(O)c(Cl)c1`, the logP was 2.41.
With `COc1cc(C)c(/C=C/C(C)=C/C=C/C(C)=C/C(=O)O)c(C)c1C` the logP was 6.4.
With `O=c1ccccc(O)c1` the logP was 0.81.
Work on `CC(C)CCOC(=O)c1ccccc1` yielded a logP of 4.15.
In the case of `C[C@H]1O[C@@H](O[C@H]2[C@@H](O)C[C@H](O[C@H]3[C@@H](O)C[C@H](O[C@H]4CC[C@@]5(C)[C@H](CC[C@@H]6[C@@H]5CC[C@]5(C)[C@@H](C7=CC(=O)OC7)CC[C@]65O)C4)O[C@@H]3C)O[C@@H]2C)C[C@H](O)[C@@H]1O`, the logP is reported as 1.85.
With `CC(=O)OCC1SC(n2ccnc2[N+](=O)[O-])C(OC(C)=O)C(OC(C)=O)C1OC(C)=O` (centres undefined) the logP was 0.63.
For `CCCCCCC(C)=NNC(=N)N`, the logP was 2.08.
With `O=C(O)C=COc1ccccc1` the logP was 2.27.
For `C=CC1CCC2OC2C1` (centres undefined), the logP was 2.08.
Compound `Cc1nc2n(c(=O)c1C)CCCC2` has a logP of 0.6.
In the case of `Cc1cc(Br)cc(C(=O)NC(C)C)c1O`, the logP is reported as 4.19.
Compound `c1ccc(-c2ncn[nH]2)cc1` has a logP of 1.54.
For `COC1CC2(C)C(O)CCC2C2CCc3cc(O)ccc3C12` (centres undefined), the logP was 2.72.
With `CC(C(=O)O)c1ccc(N2Cc3ccccc3C2=O)cc1` (centres undefined) the logP was 2.77.
Work on `C[C@H]1O[C@@H](O[C@H]2CC[C@@]3(C)[C@H](CC[C@@H]4[C@@H]3CC[C@]3(C)[C@@H](C5=CC(=O)OC5)[C@@H](O)C[C@]43O)C2)C[C@H](O)[C@@H]1O` yielded a logP of 1.77.
For `CCCCCCCCCCCCCCCC(=O)O`, the logP was 7.17.
`CN(C)CCCCN(Cc1ccc(C(C)(C)C)cc1)c1ccccc1` gave a logP of 5.53.
`Cc1ncsc1CCCl` gave a logP of 2.12.
Work on `COCOC(=O)C1N2C(=O)C(N3C(=O)C(c4ccc(O)cc4)NC3(C)C)C2SC1(C)C` (centres undefined) yielded a logP of 0.3.
With `Cc1c2ccccc2cc2ccccc12` the logP was 5.07.
`CCN(CC)CCNC(=O)c1cc(Br)c(N)cc1OC` gave a logP of 2.83.
Work on `CCCN(C(C)=O)C(C)C` yielded a logP of 1.48.
`Cc1ccc2[nH]c(=O)nc(-c3ccccc3)c2c1` showed a logP of 2.32.
Compound `CNC(C)C(OC)c1ccccc1` (centres undefined) has a logP of 2.05.
Compound `CCCCc1ccncc1` has a logP of 3.13.
Work on `O=C(Cc1ccccc1)c1ccc2n1CCC2C(=O)O` (centres undefined) yielded a logP of 2.52.
`CCOP(=O)(NC)ON=C(C#N)c1ccc(Cl)cc1` (centres undefined) gave a logP of 2.5.
Work on `CCc1ccc(CC(=O)O)cc1` yielded a logP of 2.25.
With `Clc1ccc(-c2ccccc2)c(Cl)c1` the logP was 5.16.
In the case of `c1ccc(-c2nccs2)cc1`, the logP is reported as 2.77.
`O=C(CBr)c1ccccc1` gave a logP of 2.19.
In the case of `OC1(c2ccccc2Cl)CCCCC1n1cncn1` (centres undefined), the logP is reported as 2.68.
`CCNC(=O)NS(=O)(=O)c1ccc(Cl)cc1` gave a logP of 1.79.
Work on `Cc1cn([C@H]2CC[C@@H](CO)O2)c(=O)[nH]c1=O` yielded a logP of -0.6.
Work on `COCC(O)Cn1cc(Br)nc1[N+](=O)[O-]` (centres undefined) yielded a logP of 0.46.
For `CC(=O)O[C@H]1C[C@H](O[C@H]2[C@@H](O)C[C@H](O[C@H]3[C@@H](O)C[C@H](O[C@H]4CC[C@@]5(C)[C@H](CC[C@@H]6[C@@H]5C[C@@H](O)[C@]5(C)[C@@H](C7=CC(=O)OC7)CC[C@]65O)C4)O[C@@H]3C)O[C@@H]2C)O[C@H](C)[C@H]1O`, the logP was 1.97.
`CCN(CC)CCCC(=O)Nc1c(C)cccc1C` showed a logP of 2.06.
Compound `Cc1ncc(CO)c(CO)c1O` has a logP of -0.77.
For `CNCCCN1c2ccccc2Sc2ccc(Cl)cc21`, the logP was 4.94.
For `CCCCCc1ccc(CC(=O)O)cc1`, the logP was 3.75.
With `Cc1cc(Br)cc(C)c1N=C1NCCN1` the logP was 2.8.
In the case of `CCCc1ccc(O)cc1`, the logP is reported as 3.2.
In the case of `CCCCCCCCCC[N+](C)(C)C.[I-]`, the logP is reported as -0.16.
`CCC(C(=O)OCc1ccc(C)cc1)C(COC(=O)c1ccccc1)Cc1cncn1C` (centres undefined) gave a logP of 4.85.
With `O=c1[nH]c(-c2ccccc2)nc2nn[nH]c12` the logP was 1.27.
Work on `CNC(Cc1ccccc1)Cc1ccccc1` yielded a logP of 3.8.
Compound `COC1CC(OC2CCC3(C)C(CCC4C3CCC3(C)C(C5=CC(=O)OC5)C(O)CC43O)C2)OC(C)C1O` (centres undefined) has a logP of 0.59.
`CN(C)c1ccc2ccccc2n1` showed a logP of 2.81.
For `O=C1CC(Oc2ccc(C(=O)CCc3ccccc3)cc2)N1` (centres undefined), the logP was 2.48.
Work on `COc1ccc(Cc2cnc(N)nc2N)cc1C(C)C` yielded a logP of 2.79.
`COc1cc(CCN)cc(OC)c1OCc1ccccc1` showed a logP of 2.4.
In the case of `CCCCCCC(C)(C)c1cc(O)c2c(c1)OC(C)(C)C1CCC(CO)=CC21` (centres undefined), the logP is reported as 7.83.
`OCC1c2ccccc2-c2ccccc21` gave a logP of 2.89.
With `Clc1ccc(Br)cc1NC1=NCCN1` the logP was 2.05.
With `Cc1cccc(C)c1NC(=O)CCC(C)N` (centres undefined) the logP was 1.08.
`Clc1ccc(OCc2cccc(CN3CCOCC3)c2)cc1` gave a logP of 3.52.
For `CCC(C(=O)OCc1ccccc1)C(CO)Cc1cncn1C` (centres undefined), the logP was 1.97.
`O=C(O)Cc1ccc2c(c1)C(=O)c1ccccc1CS2` gave a logP of 2.97.
Work on `CCOc1ccc(Cc2cnc(N)nc2N)cc1OCC` yielded a logP of 1.72.
`CC(=O)C(C(=O)ON=C(C)C12CC3CC(CC(C3)C1)C2)c1ccccc1` (centres undefined) showed a logP of 4.64.
Work on `CCOC(=O)CNC(=O)CNC(=O)CNC(=O)CCCCSc1ncnc2nc[nH]c12` yielded a logP of 0.21.
`Cc1cc(Br)cc(C(=O)NC2CC2)c1O` showed a logP of 3.8.
Compound `CCOC(=O)C(C(=O)OCC)=C1SCCS1` has a logP of 2.45.
Work on `C=C1C(=O)OC2CC3(C)CCCC(C)C3=CC12` (centres undefined) yielded a logP of 3.38.
In the case of `CCCCCCc1ccc(CC(=O)O)cc1`, the logP is reported as 4.25.
`CC[C@@H]1C(=O)OC[C@@H]1Cc1cncn1C` showed a logP of 0.12.
`O=C1C=CC(=O)C(c2ccccc2)=C1` showed a logP of 1.95.
Work on `Cc1cc2c(ccc3ccc(=O)oc32)o1` yielded a logP of 2.55.
In the case of `COc1ccc(CCNCC(O)COc2ccc(-c3nc(C(C)=O)c(C)[nH]3)cc2)cc1OC` (centres undefined), the logP is reported as 2.14.
For `O=C1CCc2ccccc2N1`, the logP was 1.34.
`Clc1ccc(-c2ccccc2)cc1Cl` showed a logP of 5.29.
Work on `CCNc1nc(Cl)nc(NC2CC2)n1` yielded a logP of 2.17.
Compound `O=C(c1ccc2n1CCC2C(=O)O)C1CCC1` (centres undefined) has a logP of 2.41.
With `O=C(c1ccc(F)cc1)c1ccc2n1CCC2C(=O)O` (centres undefined) the logP was 2.82.
Work on `CCCCCCC(C)(C)c1ccc(C2CCCC(O)C2)c(O)c1` (centres undefined) yielded a logP of 6.68.
For `CCOP(N)(=O)ON=C(C#N)c1ccccc1` (centres undefined), the logP was 0.72.
With `CCC(C(=O)OCc1ccccc1)C(COC(=O)c1ccccc1)Cc1cncn1C` (centres undefined) the logP was 4.37.
In the case of `O=C1c2ccccc2C(=O)C1c1ccc(Cl)cc1`, the logP is reported as 3.61.
With `OCc1cc(Cl)cc(Cl)c1O` the logP was 2.3.
`CC(C)Oc1ccc(C(=O)c2ccc3n2CCC3C(=O)O)cc1` (centres undefined) showed a logP of 3.38.
`CCCCC(O)C(=O)O` (centres undefined) showed a logP of 0.81.
In the case of `CC(C(=O)NCC(O)CO)n1ccnc1[N+](=O)[O-]` (centres undefined), the logP is reported as -1.64.
In the case of `Cc1cccc(C)c1OC(=O)c1ccc(N)cc1O`, the logP is reported as 3.88.
Compound `Nc1nc(N)c2nc(-c3ccc(O)cc3)c(N)nc2n1` has a logP of 0.92.
Work on `CCN1CC(C(O)C(CC2CCCCC2)NC(=O)C(Cc2c[nH]cn2)NC(=O)C(CC(=O)N2CCOCC2)Cc2ccccc2)OC1=O` (centres undefined) yielded a logP of 2.2.
Compound `COCc1ccc(C#N)cc1` has a logP of 1.23.
Work on `COC(=O)c1ccc(N)cc1` yielded a logP of 1.37.
With `C=CCC(NC(=O)C(Cc1ccc(OC)cc1)NS(=O)(=O)N1CCOCC1)C(=O)NC(CC1CCCCC1)C(=O)C(F)(F)C(=O)NCCN1CCOCC1` (centres undefined) the logP was 2.73.
In the case of `O=C1Nc2ccccc2CC1c1ccccc1` (centres undefined), the logP is reported as 2.93.
`Cc1ccc(C)c(O)c1C` showed a logP of 2.67.
In the case of `CCCCCCCCCCCCCCCCCCCC(=O)O`, the logP is reported as 9.29.
With `CCC(=O)Oc1c(OC)c(OC)c(OC(=O)CC)c2ccccc12` the logP was 3.44.
In the case of `CN(C)N=Nc1ccc(C(=O)O)cc1`, the logP is reported as 2.33.
Work on `c1ccc2c(c1)ccc1cc3c(ccc4ccccc43)cc12` yielded a logP of 6.75.
In the case of `CCCCCCCCCCCCCCCCCC(=O)O`, the logP is reported as 8.23.
`Cc1cnc2n(c1=O)C(C)CCC2` (centres undefined) gave a logP of 0.82.
With `C=C(C)C(=O)OCC(CC)CCCC` (centres undefined) the logP was 4.54.
In the case of `CCC1OC(=O)C(C)C(OC2CC(C)(OC)C(OC=O)C(C)O2)C(C)C(OC2OC(C)CC(N(C)C)C2O)C(C)(O)CC(C)C(=O)C(C)C(O)C1C` (centres undefined), the logP is reported as 3.05.
In the case of `O=C(O)C=COc1ccccc1Cl`, the logP is reported as 2.69.
For `CCCCCCC(C)(C)c1cc(O)c2c(c1)OC(C)(C)[C@@H]1CC=C(CO)C[C@@H]21`, the logP was 7.44.
With `Fc1cccc(N=C2NCCN2)c1Cl` the logP was 1.52.
`COCCc1cnc(-c2ccc(OCC(O)CNCCc3ccc(OC)c(OC)c3)cc2)[nH]1` (centres undefined) showed a logP of 2.06.
`c1ccc(-c2nc3ccccc3o2)cc1` showed a logP of 3.67.
For `COc1cccc2c1C(=O)c1c(O)c3c(c(O)c1C2=O)C[C@@](O)(C(C)=O)C[C@@H]3O[C@H]1C[C@H](N)[C@H](O)[C@H](C)O1`, the logP was 1.83.
With `CC(=O)O[C@]1(C(=O)CO)CC[C@H]2[C@@H]3CCC4=CC(=O)CC[C@]4(C)[C@H]3[C@@H](O)C[C@@]21C` the logP was 2.3.
With `Nc1nc(-c2ccccn2)cc2ccccc12` the logP was 2.74.
Work on `O=C1CC(c2ccccc2)c2ccccc2N1` (centres undefined) yielded a logP of 2.79.
`Cc1ccc(S(=O)(=O)NC(=O)NN2CCCCC2)cc1` gave a logP of 1.34.
Work on `O=c1[nH]nc(-c2ccccc2)c2ccccc12` yielded a logP of 2.48.
In the case of `COc1ccc(CCNCC(O)COc2ccc(-c3ncc(Cl)[nH]3)cc2)cc1OC` (centres undefined), the logP is reported as 2.4.
Work on `CCC1(c2ccccc2)C(=O)NC(=O)N=C1OC(C)C` (centres undefined) yielded a logP of 2.22.
For `O=C(COc1ccc(OCCNCC(O)COc2ccccc2)cc1)NCc1ccccc1` (centres undefined), the logP was 3.2.
For `O=C1CCC(c2ccccc2)CC1`, the logP was 2.3.
For `C=C(C)C(=O)OCCCOC(=O)C(=C)C`, the logP was 1.86.
`O=c1nc(-c2ccccc2)c2ccccc2[nH]1` gave a logP of 1.91.
Compound `Cn1c([N+](=O)[O-])cnc1C=Cc1ccncn1` has a logP of 0.85.
Work on `O=[N+]([O-])c1ccc(Cc2ccncc2)cc1` yielded a logP of 2.88.
Compound `CCCCCCCC(C)(C)c1ccc(C2CCCC(O)C2)c(O)c1` (centres undefined) has a logP of 7.18.
In the case of `O=S(=O)(O)c1cccc2c(O)cccc12`, the logP is reported as -0.17.
With `N=C(N)NN=Cc1ccccc1` the logP was 1.18.
Compound `CCCN(CCC)CC(=O)NC1c2ccccc2-c2ccccc21` has a logP of 4.61.
In the case of `Cc1cc(=O)oc2c1ccc1occc12`, the logP is reported as 2.32.
In the case of `OC1(c2cc(Cl)ccc2Cl)CCCCC1n1cncn1` (centres undefined), the logP is reported as 3.24.
Work on `Cc1cccc(C)c1NC(=O)C(C)N` (centres undefined) yielded a logP of 0.76.
Work on `O=C(NCCNCC(O)COc1ccc(-c2ncc[nH]2)cc1)Nc1ccccc1` (centres undefined) yielded a logP of 1.19.
